# Assay results taken from patent US8946203B2, “Benzodioxane inhibitors of leukotriene production” (Boehringer Ingelheim International GmbH, priority 2012, dated 2015).
# Counter-ions that a name gives are not always drawn.
# What was measured:
# human LTA4 hydrolase = molecular target: T1, human LTA4 hydrolase (Homo sapiens, UniProt P09960); assay: LTA4H Enzyme assay (cleavage of Arg-AMC, fluorescence); assay type: biochemical; conditions: LTA4H Enzyme 1 nM, Arg-AMC substrate 50 μM, room temperature 1 h, fluorescence; read-out: IC50 values of LTA4H Enzyme assay
# T1 sequence (P09960 1-611): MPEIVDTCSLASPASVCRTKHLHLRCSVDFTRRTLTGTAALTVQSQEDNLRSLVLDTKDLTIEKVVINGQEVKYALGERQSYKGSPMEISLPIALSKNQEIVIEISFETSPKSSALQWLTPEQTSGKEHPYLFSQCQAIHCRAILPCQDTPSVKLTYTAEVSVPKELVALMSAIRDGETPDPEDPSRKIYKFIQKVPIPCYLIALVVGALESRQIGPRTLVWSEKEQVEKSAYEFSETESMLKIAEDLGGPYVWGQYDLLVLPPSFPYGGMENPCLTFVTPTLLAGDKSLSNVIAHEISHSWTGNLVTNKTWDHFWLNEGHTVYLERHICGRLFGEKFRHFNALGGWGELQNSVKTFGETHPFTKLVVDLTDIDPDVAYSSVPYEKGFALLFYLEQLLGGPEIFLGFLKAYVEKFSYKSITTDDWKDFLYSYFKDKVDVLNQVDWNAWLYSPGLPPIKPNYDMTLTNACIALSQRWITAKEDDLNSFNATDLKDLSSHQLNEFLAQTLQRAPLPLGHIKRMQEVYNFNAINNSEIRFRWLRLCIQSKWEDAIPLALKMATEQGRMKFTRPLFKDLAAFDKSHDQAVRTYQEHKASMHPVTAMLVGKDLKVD
# How it was run: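 Peptidase activity of human LTA4H (1 nM final) on Arg-AMC (50 μM final), with compound, 1 h at room temperature. Buffer: 50 mM Tris-HCl pH 7.5, 100 mM KCl, 0.5% BSA.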
# [1] = system: synthesis of LTB4 in human whole blood; assay: human whole blood (HWB) assay, LTB4 production inhibition after calcimycin stimulation; assay type: cell-based; conditions: heparinized human whole blood, calcimycin 20 μM, plasma LTB4 by HTRF
# Protocol: The compounds of the invention are additionally tested in a human whole blood (HWB) assay to determine their ability to inhibit the synthesis of LTB4 in a cellular system. Compounds are combined with heparinized human whole blood and incubated for 15 minutes at 37° C. Calcimycin (20 μM final, prepared in phosphate-buffered saline, pH 7.4) is then added and the mixture is incubated for another 30 minutes at 37° C. The samples are centrifuged for 5 min at low speed (1500×g) and the plasma layer is removed. Plasma LTB4 concentrations are then measured using an antibody-based homogenous time-resolved fluorescence method (CisBio, Bedford, Mass.). In general, the preferred potency range (IC50) of compounds in the HWB assay is between 10 nM to 10 μM, the more preferred potency range is 10 nM to 1 μM, and the most preferred potency range is 10 nM to 100 nM.
Structure (SMILES),IC50 (human LTA4 hydrolase),IC50 [1]
"FC1CCN(Cc2ccc([C@H]3COc4cccnc4O3)cc2)CC1 [Example 155, (3S)-3-{4-[(4-fluoropiperidin-1-yl)methyl]phenyl}-2,3-dihydro[1,4]dioxino[2,3-b]pyridine]",0.28 nM,95 nM
"c1cnc2c(c1)OC[C@H](c1ccc(CN3CCn4cnnc4C3)cc1)O2 [Example 156, (3S)-3-[4-(5,6-dihydro[1,2,4]triazolo[4,3-a]pyrazin-7(8H)-ylmethyl)phenyl]-2,3-dihydro[1,4]dioxino[2,3-b]pyridine]",0.91 nM,159 nM
"COC1CCCN(Cc2ccc([C@H]3COc4cccnc4O3)cc2)C1 (stereo partly drawn) [Example 158, (3S)-3-{4-[(3-methoxypiperidin-1-yl)methyl]phenyl}-2,3-dihydro[1,4]dioxino[2,3-b]pyridine]",0.13 nM,28 nM
"NC(=O)N1CCN(Cc2ccc([C@H]3COc4cccnc4O3)cc2)CC1 [Example 164, 4-{4-[(3S)-2,3-dihydro[1,4]dioxino[2,3-b]pyridin-3-yl]benzyl}piperazine-1-carboxamide]",0.84 nM,100 nM
"COC1CCN(Cc2ccc([C@H]3COc4cccnc4O3)cc2)C1 (stereo partly drawn) [Example 168, (3S)-3-{4-[(3-methoxypyrrolidin-1-yl)methyl]phenyl}-2,3-dihydro[1,4]dioxino[2,3-b]pyridine]",0.31 nM,39 nM
"CC(=O)N1CCN(Cc2ccc([C@H]3COc4cccnc4O3)cc2)CC1 [Example 185, 1-(4-{4-[(3S)-2,3-dihydro[1,4]dioxin[2,3-b]pyridin-3-yl]benzyl}piperazin-1-yl)ethanone]",0.59 nM,92 nM
"OC1CCN(Cc2ccc([C@H]3COc4cccnc4O3)cc2)CC1 [Example 186, 1-{4-[(3S)-2,3-dihydro[1,4]dioxino[2,3-b]pyridin-3-yl]benzyl}piperidin-4-ol]",0.24 nM,36 nM
"c1cnc2c(c1)OC[C@H](c1ccc(CN3CCOCC3)cc1)O2 [Example 204, (S)-3-(4-Morpholin-4-ylmethyl-phenyl)-2,3-dihydro-[1,4]dioxino[2,3-b]pyridine]",0.15 nM,95 nM
"O=C(O)c1ccc(CC2CCN(Cc3ccc([C@H]4COc5cccnc5O4)cc3)CC2)cc1 [Example 234, 4-[(1-{4-[(3S)-2,3-dihydro[1,4]dioxino[2,3-b]pyridin-3-yl]benzyl}piperidin-4-yl)methyl]benzoic acid]",0.14 nM,95 nM
"CCCCN(Cc1ccc(C(=O)O)cc1)Cc1ccc([C@H]2COc3ccccc3O2)cc1 [Example 237, 4-[(butyl{4-[(2S)-2,3-dihydro-1,4-benzodioxin-2-yl]benzyl}amino)methyl]benzoic acid]",0.81 nM,95 nM
"CCOC(=O)c1nnc2n1CCN(Cc1ccc([C@H]3COc4cccnc4O3)cc1)C2 [Example 240, 7-[(S)-4-(2,3-dihydro-[1,4]dioxino[2,3-b]pyridin-3-yl)-benzyl]-5,6,7,8-tetrahydro-[1,2,4]triazolo[4,3-a]pyrazine-3-carboxylic acid ethyl ester]",0.56 nM,140 nM
"NC(=O)c1nnc2n1CCN(Cc1ccc([C@H]3COc4cccnc4O3)cc1)C2 [Example 241, 7-[(S)-4-(2,3-Dihydro-[1,4]dioxino[2,3-b]pyridin-3-yl)-benzyl]-5,6,7,8-tetrahydro-[1,2,4]triazolo[4,3-a]pyrazine-3-carboxylic acid amide]",0.5 nM,110 nM
"CNC(=O)c1nnc2n1CCN(Cc1ccc([C@H]3COc4cccnc4O3)cc1)C2 [Example 242, 7-[(S)-4-(2,3-dihydro-[1,4]dioxino[2,3-b]pyridin-3-yl)-benzyl]-5,6,7,8-tetrahydro-[1,2,4]triazolo[4,3-a]pyrazine-3-carboxylic acid methylamide]",0.6 nM,170 nM
"NC(=O)c1cn2c(n1)CN(Cc1ccc([C@H]3COc4cccnc4O3)cc1)CC2 [Example 243, 7-[(S)-4-(2,3-dihydro-[1,4]dioxino[2,3-b]pyridin-3-yl)-benzyl]-5,6,7,8-tetrahydro-imidazo[1,2-a]pyrazine-2-carboxylic acid amide]",0.42 nM,99 nM
"CNC(=O)c1cn2c(n1)CN(Cc1ccc([C@H]3COc4cccnc4O3)cc1)CC2 [Example 244, 7-[(S)-4-(2,3-dihydro-[1,4]dioxino[2,3-b]pyridin-3-yl)-benzyl]-5,6,7,8-tetrahydro-imidazo[1,2-a]pyrazine-2-carboxylic acid methylamide]",0.26 nM,120 nM

# Further lines, results first:
IC50 (human LTA4 hydrolase),IC50 [1],Structure (SMILES)
0.18 nM,28 nM,"CC(=O)NC1CCN(Cc2ccc([C@H]3COc4cccnc4O3)cc2)CC1 [Example 160, N-(1-{4-[(3S)-2,3-dihydro[1,4]dioxino[2,3-b]pyridin-3-yl]benzyl}piperidin-4-yl)acetamide]"
0.73 nM,73 nM,"c1cnc2c(c1)OC[C@H](c1ccc(CNC3CCC3)cc1)O2 [Example 173, N-{4-[(3S)-2,3-dihydro[1,4]dioxino[2,3-b]pyridin-3-yl]benzyl}cyclobutanamine]"
0.6 nM,268 nM,"CS(=O)(=O)N1CCC(NCc2ccc([C@H]3COc4ccccc4O3)cc2)CC1 [Example 174, N-{4-[(2S)-2,3-dihydro-1,4-benzodioxin-2-yl]benzyl}-1-(methylsulfonyl)piperidin-4-amine]"
0.22 nM,73 nM,"NC(=O)NC1CCN(Cc2ccc([C@H]3COc4ccccc4O3)cc2)CC1 [Example 175, 1-(1-{4-[(2S)-2,3-dihydro-1,4-benzodioxin-2-yl]benzyl}piperidin-4-yl)urea]"
0.35 nM,160 nM,"CC(=O)NC1CCN(Cc2ccc([C@H]3COc4ccccc4O3)cc2)CC1 [Example 178, N-(1-{4-[(2S)-2,3-dihydro-1,4-benzodioxin-2-yl]benzyl}piperidin-4-yl)acetamide]"
0.48 nM,151 nM,"O=C(O)C[C@@H]1CCCN(Cc2ccc([C@H]3COc4ccccc4O3)cc2)C1 [Example 183, [(3S)-1-{4-[(2S)-2,3-dihydro-1,4-benzodioxin-2-yl]benzyl}piperidin-3-yl]acetic acid]"
0.07 nM,177 nM,"NC(=O)NC1CCN(Cc2ccc([C@H]3COc4cccnc4O3)cc2)CC1 [Example 187, 1-(1-{4-[(3S)-2,3-dihydro[1,4]dioxino[2,3-b]pyridin-3-yl]benzyl}piperidin-4-yl)urea]"
0.09 nM,26 nM,"CS(=O)(=O)NC1CCN(Cc2ccc([C@H]3COc4cccnc4O3)cc2)CC1 [Example 190, N-(1-{4-[(3S)-2,3-dihydro[1,4]dioxino[2,3-b]pyridin-3-yl]benzyl}piperidin-4-yl)methanesulfonamide]"
0.12 nM,83 nM,"O=C(O)C1CCN(Cc2ccc([C@H]3COc4ccccc4O3)cc2)CC1 [Example 200, (S)-1-[4-(2,3-dihydro-benzo[1,4]dioxin-2-yl)-benzyl]-piperidine-4-carboxylic acid]"
0.47 nM,169 nM,"O=C(O)[C@@H]1CCN(Cc2ccc([C@H]3COc4ccccc4O3)cc2)C1 [Example 214, (3R)-1-{4-[(2S)-2,3-dihydro-1,4-benzodioxin-2-yl]benzyl}pyrrolidine-3-carboxylic acid]"
0.49 nM,149 nM,"COCC(=O)NC1CCN(Cc2ccc([C@H]3COc4ccccc4O3)cc2)CC1 [Example 219, N-(1-{4-[(2S)-2,3-dihydro-1,4-benzodioxin-2-yl]benzyl}piperidin-4-yl)-2-methoxyacetamide]"
0.47 nM,91 nM,"CC(C)(O)C(=O)NC1CCN(Cc2ccc([C@H]3COc4ccccc4O3)cc2)CC1 [Example 220, N-(1-{4-[(2S)-2,3-dihydro-1,4-benzodioxin-2-yl]benzyl}piperidin-4-yl)-2-hydroxy-2-methylpropanamide]"
1.4 nM,307 nM,"CC(c1ccc([C@H]2COc3ccccc3O2)cc1)N1CCC(C(=O)O)CC1 (stereo partly drawn) [Example 227, 1-{1-[(S)-4-(2,3-dihydro-benzo[1,4]dioxin-2-yl)-phenyl]-ethyl}-piperidine-4-carboxylic acid]"
3.85 nM,290 nM,"CC(C)(C(=O)O)C1CCN(Cc2ccc([C@H]3COc4ccccc4O3)cc2)CC1 [Example 229, 2-{1-[(S)-4-(2,3-Dihydro-benzo[1,4]dioxin-2-yl)-benzyl]-piperidin-4-yl}-2-methyl-propionic acid formate salt]"
